This is an account of results in DBAASP.

What all share (assay): ≥ marks a high value that may be exact or a test limit, other limits are often not marked, values filed in µg/mL are converted to µM
The subject of test [1] is Staphylococcus aureus NBRC 13276.
Test [2] concerns Escherichia coli DH5alpha.
Test [3] concerns Pseudomonas aeruginosa NBRC 13275.
In test [4] the test system is Staphylococcus epidermidis AB208188.
The subject of test [5] is Escherichia coli ATCC 25922.
For test [6], the system named is Pseudomonas aeruginosa ATCC 9027.
Test [7] has as its system Staphylococcus aureus P1389.
For test [8], the system named is Staphylococcus aureus P1381.
In test [9] the test system is Bacillus subtilis AB91021.
In test [10] the test system is Bacillus thuringiensis AB92037.
In test [11] the test system is Escherichia coli AB94012.
Test [12] concerns Micrococcus luteus AB93113.
The test system of test [13] is Staphylococcus aureus ATCC 25923.
Test [14] concerns Staphylococcus aureus ATCC 6538.
The test system of test [15] is Staphylococcus aureus P1374.
The test system of test [16] is Staphylococcus aureus AB208193.
Test [17] deals with Staphylococcus epidermidis AB208187.
The subject of test [18] is Micrococcus luteus MTCC 166.
In test [19] the test system is Salmonella enterica subsp. enterica serovar Abony NCTC 6017.
The test system of test [20] is Staphylococcus saprophyticus MTCC 6155.
The test system of test [21] is Escherichia coli ATCC 11775.
Test [22] deals with Escherichia coli ATCC 35218.
The subject of test [23] is Bacillus subtilis MTCC 121.
The subject of test [24] is Staphylococcus epidermidis MTCC 435.
The subject of test [25] is Klebsiella pneumoniae ATCC 700603.
The subject of test [26] is Salmonella enterica subsp. enterica serovar Typhi Vi+.
In test [27] the test system is Staphylococcus aureus ATCC 33592.
The subject of test [28] is Pseudomonas aeruginosa ATCC 27853.
Test [29] concerns Klebsiella pneumoniae ATCC 13883.
In test [30] the test system is Escherichia coli ML-35p.
Test [31] relates to Salmonella enterica subsp. enterica serovar Typhimurium ATCC 14028.
For test [32], the system named is Staphylococcus aureus ATCC 43300.
The subject of test [33] is Listeria monocytogenes ATCC BAA-751.
Test [34] concerns Bacillus cereus ATCC 11778.
Test [35] relates to Staphylococcus aureus ATCC 29213.
Test [36] has as its system Escherichia coli O157:H7.
For test [37], the system named is Staphylococcus aureus SA113.
Test [38] relates to Cronobacter sakazakii DSM 4485.
Test [39] concerns Escherichia coli O111.
Test [40] relates to Staphylococcus aureus RF122.
Test [41] relates to Escherichia coli NCIMB 11843.
Test [42] deals with Pseudomonas fluorescens NCIMB 9046.
Test [43] has as its system Staphylococcus aureus RN4220.
The subject of test [44] is Cronobacter sakazakii DPC 6440.
The subject of test [45] is Salmonella enterica subsp. enterica serovar Typhimurium LT2.
In test [46] the test system is Staphylococcus aureus Newman.
In test [47] the test system is Cronobacter sakazakii ATCC BAA-894.
Test [48] relates to Staphylococcus aureus NCTC 7428.
Test [49] deals with Staphylococcus aureus NCTC 8325-4.
Test [50] has as its system Salmonella enterica subsp. enterica serovar Typhimurium DT104.
For test [51], the system named is Klebsiella pneumoniae NCIMB 13218.
In test [52] the test system is Cronobacter muytjensii ATCC 51329.

Values after ≈ are worked out from the molar mass of the structure shown.

As to `CC(=O)N[C@@H](CCCCN)C(=O)N[C@@H](Cc1ccccc1)C(=O)N[C@@H](CC(C)C)C(=O)N[C@@H](Cc1cnc[nH]1)C(=O)N[C@@H](CO)C(=O)N[C@@H](C)C(=O)N[C@@H](CCCCN)C(=O)N[C@@H](CCCCN)C(=O)N[C@@H](Cc1ccccc1)C(N)=O` [KFLHSAKKF], the MIC in test [1] was at least 400 µM; in test [2], at least 200 µM; in test [3], at least 200 µM.
Consider `CC[C@H](C)[C@H](NC(=O)[C@H](CCCCN)NC(=O)[C@@H](NC(=O)[C@H](C)NC(=O)[C@H](CC(C)C)NC(=O)[C@H](CCCCN)NC(=O)[C@H](Cc1ccccc1)NC(=O)[C@H](CC(C)C)NC(=O)[C@H](C)NC(=O)CNC(=O)[C@H](Cc1ccccc1)NC(=O)[C@@H](N)Cc1ccccc1)[C@@H](C)O)C(=O)N[C@H](C(=O)N1CCC[C@H]1C(=O)N[C@@H](CO)C(=O)N[C@@H](CC(C)C)C(=O)N[C@@H](Cc1ccccc1)C(=O)N[C@@H](CCCN=C(N)N)C(=O)O)[C@@H](C)CC` [FFGALFKLATKIIPSLFR], for which the MIC in test [4] turned out to be 1.5 µM (≈ 3.1 µg/mL); in [5], 12.1 µM (≈ 25 µg/mL); in test [6] it was 12.1 µM (≈ 25 µg/mL); in test [7] it was 1.5 µM (≈ 3.1 µg/mL); in [8], 3 µM (≈ 6.21 µg/mL); in [9] it was 3 µM (≈ 6.21 µg/mL). Also, the MIC was 1.5 µM (≈ 3.1 µg/mL) in [10]; at least 48.3 µM in test [11]; at least 48.3 µM in test [12]; 3 µM (≈ 6.21 µg/mL) in [13]; 1.5 µM (≈ 3.1 µg/mL) in [14]; 3 µM (≈ 6.21 µg/mL) in [15]. Further, the MIC in [16] was determined as 3 µM (≈ 6.21 µg/mL); in test [17], 1.5 µM (≈ 3.1 µg/mL).
Regarding `CC[C@H](C)[C@H](N)C(=O)N[C@@H](CC(C)C)C(=O)N1CCC[C@H]1C(=O)N[C@@H](Cc1c[nH]c2ccccc12)C(=O)N[C@@H](CCCCN)C(=O)N[C@@H](Cc1c[nH]c2ccccc12)C(=O)N[C@@H](CCCCN)C(=O)N[C@@H](Cc1c[nH]c2ccccc12)C(=O)N[C@H](C(=O)N1CCC[C@H]1C(=O)N[C@@H](Cc1c[nH]c2ccccc12)C(=O)N[C@@H](CCCN=C(N)N)C(=O)N[C@@H](CCCN=C(N)N)C(N)=O)[C@@H](C)O` [ILPWKWKWTPWRR], the MIC was 2.5 µM (≈ 4.63 µg/mL) in [18]; 7 µM (≈ 13 µg/mL) in [19]; 3 µM (≈ 5.56 µg/mL) in [20]; 4 µM (≈ 7.41 µg/mL) in test [21]; 5 µM (≈ 9.26 µg/mL) in test [22]; 3 µM (≈ 5.56 µg/mL) in [23]. In addition, the minimum inhibitory concentration (MIC) in [24] worked out at 4 µM (≈ 7.41 µg/mL); in test [25] it was 5 µM (≈ 9.26 µg/mL); in test [26], 2 µM (≈ 3.7 µg/mL); in test [27], 3 µM (≈ 5.56 µg/mL); in test [28], 4 µM (≈ 7.41 µg/mL); in test [29], 3 µM (≈ 5.56 µg/mL). Besides, the figures for the MIC in [30] and in test [31] were 4 µM (≈ 7.41 µg/mL) and 7 µM (≈ 13 µg/mL), respectively.
`CC[C@H](C)[C@H](NC(=O)CNC(=O)[C@H](CCCCN)NC(=O)[C@@H](NC(=O)[C@H](CC(C)C)NC(=O)[C@H](CCCCN)NC(=O)CNC(=O)[C@H](CC(C)C)NC(=O)CNC(=O)[C@H](CO)NC(=O)[C@H](CCCCN)NC(=O)[C@H](Cc1ccccc1)NC(=O)[C@@H](NC(=O)[C@H](CCCN=C(N)N)NC(=O)[C@H](CCCCN)NC(=O)[C@H](CC(C)C)NC(=O)CN)[C@@H](C)CC)C(C)C)C(=O)N[C@@H](CO)C(=O)N[C@@H](C)C(=O)N[C@@H](Cc1cnc[nH]1)C(=O)N[C@H](C(=O)N[C@@H](C)C(=O)N[C@@H](CO)C(=O)O)C(C)C` [GLKRIFKSGLGKLVKGISAHVAS]: the minimum inhibitory concentration (MIC) is 62.5 µM (≈ 148 µg/mL) in test [5]; 250 µM (≈ 592 µg/mL) in [32]; 250 µM (≈ 592 µg/mL) in test [6]; at least 62.5 µM in test [33]; at least 125 µM in [34]; 62.5 µM (≈ 148 µg/mL) in test [13]. Also, the minimal inhibitory concentration (MIC) in test [35] amounted to 250 µM (≈ 592 µg/mL); in test [31], 125 µM (≈ 296 µg/mL).
As to `CC(C)C[C@H](NC(=O)[C@H](CC(C)C)NC(=O)[C@H](CC(N)=O)NC(=O)[C@H](CCC(=O)O)NC(=O)[C@H](CC(N)=O)NC(=O)[C@H](CC(C)C)NC(=O)[C@@H](N)C(C)C)C(=O)N[C@@H](CCCN=C(N)N)C(=O)O` [VLNENLLR], the minimum inhibitory concentration (MIC) in [36] was at least 2060 µM; in [37] it was at least 1250 µM; in [38] it was at least 625 µM; in [39], at least 2060 µM; in test [40] it was at least 1250 µM; in [41], at least 1250 µM. Further, the minimum inhibitory concentration (MIC) was at least 1250 µM in test [42]; 64 µM (≈ 62.1 µg/mL) in test [28]; at least 1250 µM in test [43]; at least 1250 µM in [44]; at least 1250 µM in test [45]; at least 1250 µM in test [46]. In addition, the MIC in test [47] is at least 625 µM; in [48], at least 2060 µM; in [49] it was at least 1250 µM; in test [50], at least 2060 µM; in [51], at least 1250 µM; in test [52], at least 625 µM.

For orientation: MIC means the least concentration at which growth counts as inhibited. Low readings indicate a more susceptible organism, high ones a less susceptible organism.
